Article PMC9736079, “ES-Screen: A Novel Electrostatics-Driven Method for Drug Discovery Virtual Screening” (International Journal of Molecular Sciences, 2022)
pKd: −log10 of the molar value.

Legend:
[1] = biological target: T1, human adipocyte fatty acid-binding protein (FABP4) (Homo sapiens, UniProt P15090); assay: Surface Plasmon Resonance (SPR) binding assay, immobilized protein; settings: for binding to immobilized FABP4 in SPR: 200, 100, 50, 25, 12 μM, triplicates
T1 sequence (P15090 2-132): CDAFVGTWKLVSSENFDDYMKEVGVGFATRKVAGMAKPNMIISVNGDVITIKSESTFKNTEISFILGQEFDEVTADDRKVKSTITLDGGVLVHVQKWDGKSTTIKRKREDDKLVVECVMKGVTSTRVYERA
Experimental: (§1) Briefly, mouse extracellular domain 1–2 (EC 1–2) C-terminally cysteine-tagged FABP4 and Aldose Reductase recombinant protein was immobilized on flow cell (FC) 2 in HEPES buffered saline (10 mM Hepes, pH 7.4, and 150 mM NaCl, 3 mM CaCl2) using a thiol-coupling kit according to the manufacturer’s protocol, resulting in immobilization levels of 4580 response units (RU). FC1 was only activated and inactivated and used as a reference. […] Each injection was repeated three times for 60 s. FC1 signals were deducted from FC2 for background noise elimination.

[2] = biological target: human aldose reductase (AKR1B1) (Homo sapiens, UniProt P15121); assay: as above; settings: for binding to immobilized AKR1B1 in SPR: 200, 100, 50, 25, 12 μM, triplicates
Experimental: as §1

JAK2 = biological target: T2, JAK2 (Homo sapiens, UniProt O60674); assay: Kinomescan active site-directed competition kinase binding assay; settings: read-out: Percent Control at 10 µM (Lower Numbers Indicate Stronger Hits)
T2 construct: purchased Discoverx (Kinomescan)
Experimental: (§2) Kinase assays were performed using Kinomescan, by Discoverx, CA, USA and Caliper LabChip 3000 by Caliper Life sciences, USA as described by us previously. The determination of Mebendazole (MBZ) thermodynamic binding affinities (Kd) to kinase targets predicted by ES-Screen was performed by using active site-directed competition binding. Kinase-tagged T7 phage strains were grown in parallel in 24-well blocks in an E. coli host derived from the BL21 strain. E. coli bacteria were grown to log-phase and infected with T7 phage from a frozen stock (multiplicity of infection = 0.4) and incubated with shaking at 32 °C until lysis (90–150 min). The lysates were centrifuged (6000× g) and filtered (0.2 μm sieves) to remove cell debris. The remaining kinases were produced in HEK-293 cells and subsequently tagged with DNA for qPCR detection. […] The liganded beads were blocked with excess biotin and washed with blocking buffer (SeaBlock (Pierce), 1% BSA, 0.05% Tween 20, 1 mM DTT) to remove unbound ligands and to reduce non-specific phage binding. Binding reactions were assembled by combining kinases, control liganded affinity beads, and mebendazole in 1× binding buffer (20% SeaBlock, 0.17 × PBS, 0.05% Tween 20, 6 mM DTT). Mebendazole was prepared as 40× stocks in 100% DMSO and directly diluted into the assay. All reactions were performed in polypropylene 384-well plates in a final volume of 0.04 mL. The assay plates were incubated at room temperature with shaking for 1 h and the affinity beads were washed with wash buffer (1 × PBS, 0.05% Tween 20). […] The kinase concentration in the eluates was measured by qPCR. Ligands that bind the kinase active site and directly prevent kinase binding to the immobilized ligand will reduce the amount of kinase captured. […] The amount of kinase captured in test versus control samples were measured by using a quantitative, precise and ultra-sensitive qPCR method that detects the associated DNA label. Using the primary screen binding interactions are reported as ‘% Ctrl’ (Percent kinase remaining activity, Equation (8)), where lower numbers indicate stronger hits. (8) Percent Control (%Ctrl)=Mebendazole signal − Positive control signal/DMSO Negative control signal − Positive control signal × 100
(§3) In a similar manner, binding constants (Kd) for mebendazole-kinase interactions are calculated by measuring the amount of kinase captured as a function of the mebendazole concentration in a dose response manner. […] Most Kds were determined using a starting concentration = 30,000 nM. […] Binding constants (Kd) were calculated with a standard dose–response curve (ligand dose (x-axis)—qPCR signal (y-axis)) using the Hill Equation (9), with the Hill Slope set to −1. […]

MKNK2 = biological target: T3, MKNK2 (Homo sapiens, UniProt Q9HBH9); assay: as above; settings: read-out: Percent Control at 10 µM (Lower Numbers Indicate Stronger Hits)
T3 construct: purchased Discoverx (Kinomescan)
Experimental: as §2, §3

PIK3CG = biological target: T4, PIK3CG (Homo sapiens, UniProt P48736); assay: as above; settings: read-out: Percent Control at 10 µM (Lower Numbers Indicate Stronger Hits)
T4 construct: purchased Discoverx (Kinomescan)
Experimental: as §2, §3

RAF1 = biological target: T5, RAF1 (Homo sapiens, UniProt P04049); assay: as above; settings: read-out: Percent Control at 10 µM (Lower Numbers Indicate Stronger Hits)
T5 construct: purchased Discoverx (Kinomescan)
Experimental: as §2, §3

T2 sequence (O60674 840-1132 limits assumed): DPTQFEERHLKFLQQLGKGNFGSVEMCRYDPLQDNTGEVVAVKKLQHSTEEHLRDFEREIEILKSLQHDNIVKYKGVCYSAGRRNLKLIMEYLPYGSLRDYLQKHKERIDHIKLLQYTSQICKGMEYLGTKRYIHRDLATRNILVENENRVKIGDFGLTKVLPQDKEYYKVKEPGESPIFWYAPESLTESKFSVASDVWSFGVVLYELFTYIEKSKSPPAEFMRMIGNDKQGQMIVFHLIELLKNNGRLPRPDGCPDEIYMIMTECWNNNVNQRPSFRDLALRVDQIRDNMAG
T4 sequence (P48736 whole entry): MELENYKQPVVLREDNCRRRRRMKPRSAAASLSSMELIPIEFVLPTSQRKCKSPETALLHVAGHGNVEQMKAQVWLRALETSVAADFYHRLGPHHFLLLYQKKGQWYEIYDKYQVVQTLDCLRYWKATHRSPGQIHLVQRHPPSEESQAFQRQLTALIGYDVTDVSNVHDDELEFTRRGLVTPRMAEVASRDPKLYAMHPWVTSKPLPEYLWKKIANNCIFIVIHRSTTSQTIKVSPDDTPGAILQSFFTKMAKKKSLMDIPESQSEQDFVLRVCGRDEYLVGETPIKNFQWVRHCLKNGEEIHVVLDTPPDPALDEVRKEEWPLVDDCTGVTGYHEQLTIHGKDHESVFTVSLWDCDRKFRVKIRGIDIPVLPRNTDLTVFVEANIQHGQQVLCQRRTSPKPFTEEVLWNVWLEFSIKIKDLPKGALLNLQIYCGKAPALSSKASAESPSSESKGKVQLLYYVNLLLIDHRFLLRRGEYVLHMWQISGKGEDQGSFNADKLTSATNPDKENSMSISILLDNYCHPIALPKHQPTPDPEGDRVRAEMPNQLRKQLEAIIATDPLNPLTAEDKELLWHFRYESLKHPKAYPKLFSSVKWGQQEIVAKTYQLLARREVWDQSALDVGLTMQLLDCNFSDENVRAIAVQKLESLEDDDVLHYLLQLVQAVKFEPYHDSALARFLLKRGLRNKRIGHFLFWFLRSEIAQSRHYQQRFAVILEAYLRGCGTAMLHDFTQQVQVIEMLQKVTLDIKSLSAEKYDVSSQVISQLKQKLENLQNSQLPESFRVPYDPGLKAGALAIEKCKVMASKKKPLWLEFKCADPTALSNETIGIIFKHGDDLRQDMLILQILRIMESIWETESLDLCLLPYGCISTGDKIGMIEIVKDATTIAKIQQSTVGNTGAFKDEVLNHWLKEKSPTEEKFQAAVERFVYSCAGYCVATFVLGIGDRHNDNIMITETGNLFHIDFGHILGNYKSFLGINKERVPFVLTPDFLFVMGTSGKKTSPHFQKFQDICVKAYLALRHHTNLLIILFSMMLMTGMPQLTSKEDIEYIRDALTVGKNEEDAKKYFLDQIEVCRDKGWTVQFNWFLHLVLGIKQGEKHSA
T5 sequence (P04049 whole entry): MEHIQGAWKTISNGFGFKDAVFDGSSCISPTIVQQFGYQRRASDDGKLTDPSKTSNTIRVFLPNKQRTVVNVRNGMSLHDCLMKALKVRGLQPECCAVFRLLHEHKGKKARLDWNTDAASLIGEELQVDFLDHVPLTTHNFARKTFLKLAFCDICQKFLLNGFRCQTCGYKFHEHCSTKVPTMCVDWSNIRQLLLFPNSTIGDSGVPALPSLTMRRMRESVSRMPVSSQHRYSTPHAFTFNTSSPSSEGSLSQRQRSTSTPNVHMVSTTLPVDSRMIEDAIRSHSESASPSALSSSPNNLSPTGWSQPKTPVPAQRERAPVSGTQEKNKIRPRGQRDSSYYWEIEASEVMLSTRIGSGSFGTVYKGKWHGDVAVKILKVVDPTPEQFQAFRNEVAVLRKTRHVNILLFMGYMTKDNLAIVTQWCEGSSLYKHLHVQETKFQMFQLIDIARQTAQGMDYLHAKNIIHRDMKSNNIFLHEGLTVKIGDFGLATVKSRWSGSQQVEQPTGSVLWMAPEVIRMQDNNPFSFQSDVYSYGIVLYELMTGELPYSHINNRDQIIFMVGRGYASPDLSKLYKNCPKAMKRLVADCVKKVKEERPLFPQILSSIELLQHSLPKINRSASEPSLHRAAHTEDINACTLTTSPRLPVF
T3 sequence (Q9HBH9 whole entry): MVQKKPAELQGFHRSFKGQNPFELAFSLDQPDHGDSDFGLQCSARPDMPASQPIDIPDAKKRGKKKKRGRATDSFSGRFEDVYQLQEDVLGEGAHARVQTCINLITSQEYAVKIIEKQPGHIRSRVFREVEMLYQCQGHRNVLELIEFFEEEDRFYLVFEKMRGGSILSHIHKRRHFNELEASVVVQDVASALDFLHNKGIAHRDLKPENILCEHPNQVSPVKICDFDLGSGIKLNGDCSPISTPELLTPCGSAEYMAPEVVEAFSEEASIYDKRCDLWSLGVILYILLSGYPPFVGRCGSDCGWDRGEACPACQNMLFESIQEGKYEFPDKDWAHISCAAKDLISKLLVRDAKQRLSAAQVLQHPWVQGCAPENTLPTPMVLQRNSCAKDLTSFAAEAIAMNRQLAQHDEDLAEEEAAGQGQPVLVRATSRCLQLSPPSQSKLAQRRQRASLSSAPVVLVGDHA

Structure (SMILES)	binding to immobilized FABP4 in SPR [1]	binding to immobilized AKR1B1 in SPR [2]	percent of control kinase binding at 10 µM (JAK2)	remaining binding at 10 µM (MKNK2)	remaining binding at 10 µM (PIK3CG)	remaining binding at 10 µM (RAF1)	pKd ([1]; SPR, FABP4, read-out: KD50)	pKd ([2]; SPR, AKR1B1, read-out: KD50)
COc1ccc2c(c1)c(CC(=O)O)c(C)n2C(=O)c1ccc(Cl)cc1 [indomethacin]	in a dose-dependent manner	in a dose-dependent manner	–	–	–	–	–	–
CC1(C)Cc2c(-c3ccccc3)c(-c3ccc(Cl)cc3)c(CC(=O)O)n2C1 [licofelone]	in a dose-dependent manner	in a dose-dependent manner	–	–	–	–	–	–
COC(=O)Nc1nc2ccc(C(=O)c3ccccc3)cc2[nH]1 [mebendazole]	bind directly, in a dose-dependent manner	bind directly, in a dose-dependent manner	39%	46%	18%	23%	5.08	5.26
O=C(O)CCc1nc(-c2ccccc2)c(-c2ccccc2)o1 [oxaprozin]	in a dose-dependent manner	in a dose-dependent manner	–	–	–	–	–	–
